These results are taken from patent US20240217982A1, “KRAS INHIBITORS” (Bristol-Myers Squibb Company, priority 2021, published 2024).

Where only a bound is given, the exact number is not on record here.

In experiment [1] the target is T1, KRAS G12D (Homo sapiens (Human), UniProt P01116, G12D). The experiment in a line: KRAS G12D RAF Disruption Assay (HTRF). The note with it: recombinant GMPPNP-loaded KRAS G12D (5 nM), GST-RAF1 RBD (9 nM), HTRF signal. It counts as biochemical. The procedure: Recombinant GMPPNP-loaded KRAS G12D (5 nM) was treated with compound at room temperature for 20 minutes in assay buffer (50 mM Tris pH 7.5, 100 mM NaCl, 1 mM MgCl2, 1 mM DTT, 100 ug/mL BSA).
(TR-FRET usually uses a lanthanide donor and a delayed reading to cut background.)

The target in experiment [2] is T1, KRAS G12D. The experiment in a line: KRAS G12D Nucleotide Exchange Assay (HTRF). Format: biochemical. Particulars: recombinant GDP-loaded KRAS G12D (20 nM), BIODIPY-labeled GDP (400 nM), recombinant SOS (10 nM), HTRF signal. The procedure:
Recombinant GDP-loaded KRAS G12D (20 nM) was treated with compound at room temperature for 20 minutes in assay buffer (10 mM Hepes pH 7.4, 150 mM NaCl, 5 mM MgCl2, 0.0025% Igepal-CA630, 0.05% BSA, 1 mM DTT, 0.5 nM SA-Tb). BIODIPY-labeled GDP (400 nM) and recombinant SOS (10 nM) were added, and the reaction was incubated for 30 minutes.

T1 sequence (P01116-2 other isoform, or with tags, fused parts or gaps G12D): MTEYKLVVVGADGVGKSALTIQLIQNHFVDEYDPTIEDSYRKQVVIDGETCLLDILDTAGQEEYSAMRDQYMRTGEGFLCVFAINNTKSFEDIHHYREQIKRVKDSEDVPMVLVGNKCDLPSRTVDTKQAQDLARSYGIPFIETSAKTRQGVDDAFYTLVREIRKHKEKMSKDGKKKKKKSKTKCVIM

As to `CCc1cccc2cc(O)cc(-c3c(Cl)cc4c(N5CC[C@H]6CC[C@@H](C5)N6)nc(OC[C@@]56CCCN5C[C@H](F)C6)nc4c3F)c12` (single isomer, unassigned) [Example 8-1], the “KRASG12D RAF Disruption Assay (IC50, µM)” value at KRAS G12D [1] was 5.7 µM. The “KRASG12D Nucleotide Exchange Assay (IC50, µM)” value at KRAS G12D [2] turned out to be 0.04 µM.

In the case of `CCc1cccc2cc(O)cc(-c3c(Cl)cc4c(N5CC[C@H]6CC[C@@H](C5)N6)nc(OC[C@@]56CCCN5C[C@H](F)C6)nc4c3F)c12` (single isomer, unassigned) [Example 8-2], on KRAS G12D [1], the “KRASG12D RAF Disruption Assay (IC50, µM)” value was determined as 19.6 µM. Also, the “KRASG12D Nucleotide Exchange Assay (IC50, µM)” value at KRAS G12D [2] is 1.3 µM.

As to `CCc1cccc2cc(O)cc(-c3c(Cl)cc4c(N5CC[C@H]6CC[C@@H](C5)N6)nc(OC[C@]56CCCN5C[C@@H](F)C6)nc4c3F)c12` (single isomer, unassigned) [Example 8-3], on KRAS G12D [1], the “KRASG12D RAF Disruption Assay (IC50, µM)” value is given as 17.3 µM. Further, the “KRASG12D Nucleotide Exchange Assay (IC50, µM)” value on KRAS G12D [2] is given as 0.07 µM.

In the case of `CCc1cccc2cc(O)cc(-c3c(Cl)cc4c(N5CC[C@H]6CC[C@@H](C5)N6)nc(OC[C@]56CCCN5C[C@@H](F)C6)nc4c3F)c12` (single isomer, unassigned) [Example 8-4], the “KRASG12D RAF Disruption Assay (IC50, µM)” value at KRAS G12D [1] is recorded as 37.8 µM. The “KRASG12D Nucleotide Exchange Assay (IC50, µM)” value on KRAS G12D [2] was found to be 7.7 µM.

For the molecule `Oc1cc(-c2c(Cl)cc3c(N4CC[C@H]5CC[C@@H](C4)N5)nc(OC[C@@]45CCCN4C[C@H](F)C5)nc3c2F)c2c(F)cccc2c1` (single isomer, unassigned) [Example 8-5], the “KRASG12D RAF Disruption Assay (IC50, µM)” value on KRAS G12D [1] came to 0.07 µM.

For the molecule `Oc1cc(-c2c(Cl)cc3c(N4CC[C@H]5CC[C@@H](C4)N5)nc(OC[C@@]45CCCN4C[C@H](F)C5)nc3c2F)c2c(F)cccc2c1` (single isomer, unassigned) [Example 8-6], the “KRASG12D RAF Disruption Assay (IC50, µM)” value at KRAS G12D [1] is listed as 3.6 µM. Further, on KRAS G12D [2], the “KRASG12D Nucleotide Exchange Assay (IC50, µM)” value turned out to be 0.07 µM.

For `Oc1cc(-c2c(Cl)cc3c(N4CC[C@H]5CC[C@@H](C4)N5)nc(OC[C@@]45CCCN4C[C@H](F)C5)nc3c2F)c2ccccc2c1` (single isomer, unassigned) [Example 8-7], the “KRASG12D RAF Disruption Assay (IC50, µM)” value at KRAS G12D [1] is reported as 0.51 µM. Besides, the “KRASG12D Nucleotide Exchange Assay (IC50, µM)” value at KRAS G12D [2] came to 0.006 µM.

As to `Oc1cc(-c2c(Cl)cc3c(N4CC[C@H]5CC[C@@H](C4)N5)nc(OC[C@@]45CCCN4C[C@H](F)C5)nc3c2F)c2ccccc2c1` (single isomer, unassigned) [Example 8-8], the “KRASG12D RAF Disruption Assay (IC50, µM)” value at KRAS G12D [1] is listed as 15.5 µM. The “KRASG12D Nucleotide Exchange Assay (IC50, µM)” value on KRAS G12D [2] was 0.3 µM.

As for `Oc1cc(-c2c(Cl)cc3c(N4CC[C@H]5CC[C@@H](C4)N5)nc(OC[C@]45CCCN4C[C@@H](F)C5)nc3c2F)c2ccccc2c1` (single isomer, unassigned) [Example 8-9], the “KRASG12D RAF Disruption Assay (IC50, µM)” value at KRAS G12D [1] worked out at 0.7 µM. Moreover, the “KRASG12D Nucleotide Exchange Assay (IC50, µM)” value on KRAS G12D [2] is listed as 0.005 µM.

For the molecule `Oc1cc(-c2c(Cl)cc3c(N4CC[C@H]5CC[C@@H](C4)N5)nc(OC[C@]45CCCN4C[C@@H](F)C5)nc3c2F)c2ccccc2c1` (single isomer, unassigned) [Example 8-10], the “KRASG12D RAF Disruption Assay (IC50, µM)” value at KRAS G12D [1] was 14.2 µM. On KRAS G12D [2], the “KRASG12D Nucleotide Exchange Assay (IC50, µM)” value turned out to be 0.50 µM.

On to `Cc1cc(N)nc(-c2c(Cl)cc3c(N4CC[C@H]5CC[C@@H](C4)N5)nc(OC[C@@]45CCCN4C[C@@H](OC(F)F)C5)nc3c2F)c1C(F)(F)F` (single isomer, unassigned) [Example 10-5], for which the “KRASG12D RAF Disruption Assay (IC50, µM)” value on KRAS G12D [1] is 81 µM. Further, at KRAS G12D [2], the “KRASG12D Nucleotide Exchange Assay (IC50, µM)” value is 0.9 µM.

As to `Cc1cc(N)nc(-c2c(Cl)cc3c(N4CC[C@H]5CC[C@@H](C4)N5)nc(OC[C@@]45CCCN4C[C@@H](OC(F)F)C5)nc3c2F)c1C(F)(F)F` (single isomer, unassigned) [Example 10-6], on KRAS G12D [1], the “KRASG12D RAF Disruption Assay (IC50, µM)” value is more than 100 µM. In addition, the “KRASG12D Nucleotide Exchange Assay (IC50, µM)” value at KRAS G12D [2] was determined as 0.2 µM.

For the molecule `CN1CCC[C@H]1COc1nc(N2C3CCNCC2CC3)c2cc(Cl)c(-c3cc(O)cc4ccccc34)c(F)c2n1` (stereo partly drawn) [Example 1-1, 4-(6-chloro-4-{3,9-diazabicyclo[4.2.1]nonan-9-yl}-8-fluoro-2-{[(2S)-1-methylpyrrolidin-2-yl]methoxy}quinazolin-7-yl)naphthalen-2-ol], the “KRASG12D RAF Disruption Assay (IC50, µM)” value at KRAS G12D [1] amounted to 41.99 µM. On KRAS G12D [2], the “KRASG12D Nucleotide Exchange Assay (IC50, µM)” value is 33.33 µM.

Regarding `CN1CCC[C@H]1COc1nc(N2CCN3CCC2CC3)c2cc(Cl)c(-c3cc(O)cc4ccccc34)c(F)c2n1` [Example 1-2, 4-(6-chloro-4-{1,4-diazabicyclo[3.2.2]nonan-4-yl}-8-fluoro-2-{[(2S)-1-methylpyrrolidin-2-yl]methoxy}quinazolin-7-yl)naphthalen-2-ol], the “KRASG12D RAF Disruption Assay (IC50, µM)” value on KRAS G12D [1] is more than 100 µM. The “KRASG12D Nucleotide Exchange Assay (IC50, µM)” value on KRAS G12D [2] worked out at 13.66 µM.

Take `Cc1cc(N)nc(-c2c(Cl)cc3c(N4CCC5CCC(C4)N5)nc(OC[C@@H]4CCCN4C)nc3c2F)c1C(F)(F)F` (stereo partly drawn) [Example 2-1, 6-(6-chloro-4-{3,9-diazabicyclo[4.2.1]nonan-3-yl}-8-fluoro-2-{[(2S)-1-methylpyrrolidin-2-yl]methoxy}quinazolin-7-yl)-4-methyl-5-(trifluoromethyl)pyridin-2-amine]: the “KRASG12D RAF Disruption Assay (IC50, µM)” value at KRAS G12D [1] was 6.19 µM. The “KRASG12D Nucleotide Exchange Assay (IC50, µM)” value on KRAS G12D [2] is reported as 0.04 µM.

Consider `Cc1cc(N)nc(-c2c(Cl)cc3c(N4CC5CCC(C4)NC5)nc(OC[C@@H]4CCCN4C)nc3c2F)c1C(F)(F)F` (stereo partly drawn) [Example 2-2, 6-(6-chloro-4-{3,6-diazabicyclo[3.2.2]nonan-3-yl}-8-fluoro-2-{[(2S)-1-methylpyrrolidin-2-yl]methoxy}quinazolin-7-yl)-4-methyl-5-(trifluoromethyl)pyridin-2-amine], for which the “KRASG12D RAF Disruption Assay (IC50, µM)” value on KRAS G12D [1] worked out at 10.88 µM. The “KRASG12D Nucleotide Exchange Assay (IC50, µM)” value on KRAS G12D [2] was 0.14 µM.

In the case of `Cc1cc(N)nc(-c2c(Cl)cc3c(N4CC[C@H]5CC[C@@H](C4)N5)nc(OC[C@]45CCC[C@H]4N(C)CCC5)nc3c2F)c1C(F)(F)F` [Example 3, 6-(2-{[(4aS,7aR)-1-methyl-octahydro-1H-cyclopenta[b]pyridin-4a-yl]methoxy}-6-chloro-4-[(1S,6R)-3,9-diazabicyclo[4.2.1]nonan-3-yl]-8-fluoroquinazolin-7-yl)-4-methyl-5-(trifluoromethyl)pyridin-2-amine], at KRAS G12D [1], the “KRASG12D RAF Disruption Assay (IC50, µM)” value was determined as 0.05 µM. Besides, the “KRASG12D Nucleotide Exchange Assay (IC50, µM)” value at KRAS G12D [2] was <0.002 µM.

In the case of `Cc1cc(N)nc(-c2c(Cl)cc3c(N4CC[C@H]5CC[C@@H](C4)N5)nc(OC[C@@]45CCCN4C[C@H](F)C5)nc3c2F)c1C(F)(F)F` [Example 4-1, 6-(2-{[(2R,7aS)-2-fluoro-hexahydro-1H-pyrrolizin-7a-yl]methoxy}-6-chloro-4-[(1S,6R)-3,9-diazabicyclo[4.2.1]nonan-3-yl]-8-fluoroquinazolin-7-yl)-4-methyl-5-(trifluoromethyl)pyridin-2-amine], on KRAS G12D [1], the “KRASG12D RAF Disruption Assay (IC50, µM)” value is listed as 0.06 µM. At KRAS G12D [2], the “KRASG12D Nucleotide Exchange Assay (IC50, µM)” value stood at 0.005 µM.

For `Cc1cc(N)nc(-c2c(Cl)cc3c(N4CC[C@H]5CC[C@@H](C4)N5)nc(OC[C@]45CCCN4C[C@@H](F)C5)nc3c2F)c1C(F)(F)F` [Example 4-2, 6-(2-{[(2S,7aR)-2-fluoro-hexahydro-1H-pyrrolizin-7a-yl]methoxy}-6-chloro-4-[(1S,6R)-3,9-diazabicyclo[4.2.1]nonan-3-yl]-8-fluoroquinazolin-7-yl)-4-methyl-5-(trifluoromethyl)pyridin-2-amine], on KRAS G12D [1], the “KRASG12D RAF Disruption Assay (IC50, µM)” value was 0.43 µM. Further, the “KRASG12D Nucleotide Exchange Assay (IC50, µM)” value on KRAS G12D [2] is given as 0.006 µM.

With `Cc1cc(N)nc(-c2c(Cl)cc3c(N4CC[C@H]5CC[C@@H](C4)N5)nc(OC[C@]45CCCN4C[C@H](F)C5)nc3c2F)c1C(F)(F)F` [Example 4-3, 6-(2-{[(2R,7aR)-2-fluoro-hexahydro-1H-pyrrolizin-7a-yl]methoxy}-6-chloro-4-[(1S,6R)-3,9-diazabicyclo[4.2.1]nonan-3-yl]-8-fluoroquinazolin-7-yl)-4-methyl-5-(trifluoromethyl)pyridin-2-amine], the “KRASG12D RAF Disruption Assay (IC50, µM)” value on KRAS G12D [1] is reported as 0.52 µM. Moreover, at KRAS G12D [2], the “KRASG12D Nucleotide Exchange Assay (IC50, µM)” value is on record as 0.02 µM.

In the case of `CO[C@@H]1C[C@@H](COc2nc(N3CC[C@H]4CC[C@@H](C3)N4)c3cc(Cl)c(-c4nc(N)cc(C)c4C(F)(F)F)c(F)c3n2)N(C)C1` [Example 4-4, 6-{6-chloro-4-[(1S,6R)-3,9-diazabicyclo[4.2.1]nonan-3-yl]-8-fluoro-2-{[(2S,4R)-4-methoxy-1-methylpyrrolidin-2-yl]methoxy}quinazolin-7-yl}-4-methyl-5-(trifluoromethyl)pyridin-2-amine], the “KRASG12D RAF Disruption Assay (IC50, µM)” value at KRAS G12D [1] stood at 1.81 µM. On KRAS G12D [2], the “KRASG12D Nucleotide Exchange Assay (IC50, µM)” value amounted to 0.010 µM.

For the molecule `Cc1cc(N)nc(-c2c(Cl)cc3c(N4CC[C@H]5CC[C@@H](C4)N5)nc(OC[C@@]45CCCN4C[C@@H](F)C5)nc3c2F)c1C(F)(F)F` [Example 5, 6-(2-{[(2S,7aS)-2-fluoro-hexahydro-1H-pyrrolizin-7a-yl]methoxy}-6-chloro-4-[(1S,6R)-3,9-diazabicyclo[4.2.1]nonan-3-yl]-8-fluoroquinazolin-7-yl)-4-methyl-5-(trifluoromethyl)pyridin-2-amine], the “KRASG12D RAF Disruption Assay (IC50, µM)” value at KRAS G12D [1] was determined as 2.87 µM. In addition, at KRAS G12D [2], the “KRASG12D Nucleotide Exchange Assay (IC50, µM)” value is <0.002 µM.
